Assay results as given in US8318495B1, “Hematopoietic progenitor cell gene transduction” (Case Western Reserve University, priority 1998, dated 2012).
Several values for one entry are separate records, joined by “and”; a condition that tells them apart may be missing. Equal entries are not always repeated. Where two headings read alike, the source gives them in different places.

Tests used:
[1] = tested on: ΔMGMT transduced hematopoietic CD34+ progenitor cells; test: Drug resistance: CFU survival after BG plus TMZ or BCNU, ΔMGMT transduced cells; type: cell-based, human; conditions: for IC50 / IC90: Homo sapiens, 10 μM BG 1 hour, then drug 2 hours
From the text: CD34+ cells were transduced with MFG-ΔMGMT high titer retroviral supernatant obtained as described in Reese et al. 1996. ΔMGMT encodes a mutant form of O-^6 alkylguanine DNA alkyltransferase (ΔAGT) and contains a point mutation which renders the protein resistant to the inhibitor O^6-benzylguanine (BG). CD34+ cells transduced with ΔMGMT are resistant to the drug combinations BG and 1,3bis(2-chloroethly)-1-nitrosourea (BCNU) (Reese et al. 1996) and BG and temozolomide (TMZ) (Reese et al. 1998). The CD34+ cells were transduced as follows: pMFG-wtMGMT or pMFG-ΔMGMT and pSV2neo DNA were cotransfected into the packaging line GP+E86, followed by viral supernatant infection of the amphotropic cell line GP+envAm12 (Markowitz, D. et al. 1988) (Arthur Bank, Columbia University). To increase titer, a supernatant “ping-pong” method was used (Bodine et al. 1990).
(§1) Drug resistance conferred by ΔMGMT To evaluate drug resistance conferred by ΔMGMT, primary CFU survival at the TMZ or BCNU IC50 and IC90 in transduced or untransduced cells was compared. IC50 (or IC90) is the determination of CFU survival after exposure to TMZ or BCNU in the presence of the AGT inhibitor BG. Following a retroviral transduction period of 72-96 hours, hematopoietic CD34+ progenitor cells were pretreated for 1 hour with 10 μM BG followed by increasing concentrations of TMZ or BCNU for 2 hours. Cells were washed free of drug, plated in methylcellulose and 5 μM BG was added to maintain depletion of endogenous AGT. After culture in methylcellulose, the colonies formed were counted as either CFU-GM, BFU-E and CFU-GEMM (referred to as CFU). Individual CFU were collected from 10 independent experiments, each from a different donor.

[2] = tested on: untransduced hematopoietic CD34+ progenitor cells; test: Drug resistance: CFU survival after BG plus TMZ or BCNU, untransduced cells; type: cell-based; conditions: Homo sapiens, 10 μM BG 1 hour, then drug 2 hours
Procedure: as §1

O=NN(CCCl)C(=O)NCCCl [BCNU, 1,3bis(2-chloroethly)-1-nitrosourea] was tested, and the “increase in the IC90 after exposure to BG” value (from here on “increase in the IC90”) ([1]; Dexter) was 2.5 fold, the “average increase in the IC50 after exposure to BG” value ([1]; Dexter (n=2)) was 5.6 fold and the “average fold increase in the IC50 after exposure to BG” value (shortened to “average fold increase in the IC50”) ([1]; FN (TMZ n=2, BCNU n=1)) was 2.8 fold. For the same molecule, the “increase in the IC90” value ([1]; FN (TMZ n=2, BCNU n=1)) was greater than 10 fold, the “average increase in the IC50 after exposure to BG” value ([1]; allo MSC (n=1)) was 2 fold and the “increase in the IC90” value ([1]; allo MSC (n=1)) was greater than 6 fold. For the same molecule, the “fold increase in ΔMGMT/untransduced CFU IC50” value ([1]; stroma Allo MSC) was 5.6 fold, the “fold increase in ΔMGMT/untransduced CFU IC90” value ([1]; stroma Allo MSC) was greater than 6 fold and the “fold increase in ΔMGMT/untransduced CFU IC90” value ([1]; stroma Dexter) was 2.5 fold. The “fold increase in ΔMGMT/untransduced CFU IC50” value ([1]; stroma FN) was 2.8 fold.
For Cn1nnc2c(C(N)=O)ncn2c1=O [TMZ, temozolomide], the IC50 ([2]; stroma Allo MSC) was 25.5 µM, the IC90 ([2]; stroma Allo MSC) was 48 µM and the IC90 ([2]; stroma FN) was 29 µM. The IC50 ([2]; stroma auto MSC) was 9.8 µM, the IC90 ([2]; stroma auto MSC) was 29 µM and the “average fold increase in the IC50” value ([1]; FN (TMZ n=2, BCNU n=1)) was 7.7 fold. For the same molecule, the “increase in the IC90” value ([1]; FN (TMZ n=2, BCNU n=1)) was greater than 8.2 fold, the IC50 ([1]; read-out: CFU IC50 ΔMGMT, stroma Allo MSC) was 71 µM and the IC50 ([1]; read-out: CFU IC50 ΔMGMT, stroma FN) was 123 µM. It also gave an IC50 ([1]; read-out: CFU IC50 ΔMGMT, stroma auto MSC) of 64 µM, an IC90 ([1]; read-out: CFU IC90 ΔMGMT, stroma Allo MSC) greater than 300 µM and an IC90 ([1]; read-out: CFU IC90 ΔMGMT, stroma FN) greater than 300 µM. For the same molecule, the IC90 ([1]; read-out: CFU IC90 ΔMGMT, stroma auto MSC) was greater than 300 µM, the “average fold increase in the IC50” value ([1]; allo MSC and auto MSC (n=4)) was 5.2 fold and the “increase in the IC90” value ([1]; allo MSC and auto MSC (n=4)) was greater than 9.8 fold. For the same molecule, the “fold increase in ΔMGMT/untransduced CFU IC50” value ([1]; stroma Allo MSC) was 2.8 fold and 2.4 fold, the “fold increase in ΔMGMT/untransduced CFU IC90” value ([1]; stroma Allo MSC) was >6 fold and >5.3 fold and the “fold increase in ΔMGMT/untransduced CFU IC90” value ([1]; stroma FN) was >10.3 fold and >6 fold. The “fold increase in ΔMGMT/untransduced CFU IC50” value ([1]; stroma auto MSC) was 6.5 fold and 8.9 fold and the “fold increase in ΔMGMT/untransduced CFU IC90” value ([1]; stroma auto MSC) was >10.3 fold and 17.7 fold.
